One data set deals with cathepsin. The following applies: background statement; cited from earlier work.
The nature of data set [1]: Comparative stability test (solid kept at 80° C. for three days, light-shaded and airtight; remaining substance by HPLC). It counts as physicochemical. The conditions noted are these: for Remaining ratio(%) after 3 days at 80° C.: 10 mg solid sample, thermostat at 80° C., three days, light-shaded and airtight, HPLC; for storage stability (result in words): left at 80° C. for three days. The procedure: The crystalline Na salt of the invention (described in Example 9) was subjected to a comparative stability test. In the test, the Na salt was left at 80° C. for three days together with both the substance obtained by condensing the solution to dryness and the product collected by filtration and left at room temperature after recrystallization.
The crystalline K salt of the invention (described in Example 11) was subjected to a stability test in which the K salt was left at 80° C. for three days.
mobile phase: a mixture of 0.1 mol/L sodium dihydrogen phosphate reagent (pH: 3.0)/acetonitrile (5:2),
flow rate; controlled so that the retention time of (2S,3S)-3-[[(1S)-1-isobutoxymethyl-3-methylbutyl]-carbamoyl]oxirane-2-carboxylic acid would be approx. 13 minutes, and
As a sample, 10 mg of sodium or potassium (2S,3S)-3-[[(1S)-1-isobutoxymethyl-3-methylbutyl]carbamoyl]oxirane-2-carboxylate was weighed and placed in a test tube. After the sample was kept in a thermostat at 80° C. for three days under a light-shaded and airtight condition, the amount of remaining substance was measured by HPLC.
The same as those in Example 14.

For `CC(C)COC[C@H](CC(C)C)NC(=O)[C@H]1O[C@@H]1C(=O)[O-].[Na+]` [Compound A, sodium (2S,3S)-3-[[(1S)-1-isobutoxymethyl-3-methylbutyl]carbamoyl]-oxirane-2-carboxylate], in the data set on cathepsin, the cathepsin-inhibitory action result is reported as “shows a cathepsin-inhibitory action”.
Consider `CC(C)COC[C@H](CC(C)C)NC(=O)[C@H]1O[C@@H]1C(=O)[O-].[K+]` [K salt (obtained in Example 11), potassium (2S,3S)-3-[[(1S)-1-isobutoxymethyl-3-methylbutyl]carbamoyl]oxirane-2-carboxylate], for which, in data set [1], the “Remaining ratio(%) after 3 days at 80° C.” value (“Remaining ratio(%)” below) was 99.9% and the “storage stability (result in words)” value is given as “excellent in storage stability”.
Turning to `CC(C)COC[C@H](CC(C)C)NC(=O)[C@H]1O[C@@H]1C(=O)[O-].[Na+]` [Na salt (obtained according to the conventional process)] [sodium (2S,3S)-3-[[(1S)-1-isobutoxymethyl-3-methylbutyl]carbamoyl]oxirane-2-carboxylate, reference compound], the “Remaining ratio(%)” value in data set [1] is on record as 13-77%.
On to `CC(C)COC[C@H](CC(C)C)NC(=O)[C@H]1O[C@@H]1C(=O)[O-].[Na+]` [Na salt (obtained in Example 9), sodium (2S,3S)-3-[[(1S)-1-isobutoxymethyl-3-methylbutyl]carbamoyl]oxirane-2-carboxylate], for which, in data set [1], the “Remaining ratio(%)” value is given as 95-98% and the “storage stability (result in words)” value is listed as “superior to the substances for comparison in storage stability”.
Turning to `CC(C)COC[C@H](CC(C)C)NC(=O)[C@H]1O[C@@H]1C(=O)[O-].[Na+]` [Na salt (obtained through recrystallization and drying in ai] [sodium (2S,3S)-3-[[(1S)-1-isobutoxymethyl-3-methylbutyl]carbamoyl]oxirane-2-carboxylate, reference compound], the “Remaining ratio(%)” value in data set [1] is 38-77%.

Values taken from patent US7795458B2, “Salt of (2S, 3S)-3-[[(1S)-1-isobutoxymethyl-3-methylbutyl] carbamoyl] oxirane-2-carboxylic acid” (Nippon Chemiphar Co., Ltd, priority 2003, dated 2010).
